PubChem BioAssay (NCI)
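Briefly, cells in 96-well plates were exposed to five compound concentrations for 48 h, and endpoints were estimated by linear interpolation. Abbreviation: GI50, concentration required for 50% inhibition of growth. TGI marks complete inhibition of growth.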

Assays:
Assay in all cases: inhibition of tumour cell growth, NCI panel, 48 h
ACHN renal = tested on: ACHN renal
PC-3 prostate = tested on: PC-3 prostate
786-0 renal = tested on: 786-0 renal
SNB-75 CNS = tested on: SNB-75 CNS
T-47D breast = tested on: T-47D breast
SK-MEL-5 melanoma = tested on: SK-MEL-5 melanoma
MCF7 breast = tested on: MCF7 breast
NCI-H226 lung = tested on: NCI-H226 lung
M14 melanoma = tested on: M14 melanoma
COLO 205 colon = tested on: COLO 205 colon
UACC-62 melanoma = tested on: UACC-62 melanoma
OVCAR-3 ovarian = tested on: OVCAR-3 ovarian
HT29 colon = tested on: HT29 colon
SF-268 CNS = tested on: SF-268 CNS
TK-10 renal = tested on: TK-10 renal
CCRF-CEM leukemia = tested on: CCRF-CEM leukemia
HOP-62 NSCLC = tested on: HOP-62 NSCLC
HS 578T breast = tested on: HS 578T breast
SW-620 colon = tested on: SW-620 colon
OVCAR-5 ovarian = tested on: OVCAR-5 ovarian
SF-539 CNS = tested on: SF-539 CNS
SNB-19 CNS = tested on: SNB-19 CNS
U251 CNS = tested on: U251 CNS
A549 NSCLC = tested on: A549 NSCLC
IGROV1 ovarian = tested on: IGROV1 ovarian
CAKI-1 renal = tested on: CAKI-1 renal
SF-295 CNS = tested on: SF-295 CNS
HCT-15 colon = tested on: HCT-15 colon
BT-549 breast = tested on: BT-549 breast
NCI/ADR-RES ovarian = tested on: NCI/ADR-RES ovarian
K-562 leukemia = tested on: K-562 leukemia
SK-OV-3 ovarian = tested on: SK-OV-3 ovarian
UO-31 renal = tested on: UO-31 renal
RXF 393 renal = tested on: RXF 393 renal
SN12C renal = tested on: SN12C renal
LOX IMVI melanoma = tested on: LOX IMVI melanoma
NCI-H23 lung = tested on: NCI-H23 lung
SK-MEL-2 melanoma = tested on: SK-MEL-2 melanoma
MOLT-4 leukemia = tested on: MOLT-4 leukemia
MALME-3M melanoma = tested on: MALME-3M melanoma
KM12 colon = tested on: KM12 colon
MDA-MB-231 breast = tested on: MDA-MB-231 breast
DU-145 prostate = tested on: DU-145 prostate
NCI-H460 lung = tested on: NCI-H460 lung
OVCAR-8 ovarian = tested on: OVCAR-8 ovarian
HOP-92 NSCLC = tested on: HOP-92 NSCLC
RPMI-8226 leukemia = tested on: RPMI-8226 leukemia
SR leukemia = tested on: SR leukemia
SK-MEL-28 melanoma = tested on: SK-MEL-28 melanoma
UACC-257 melanoma = tested on: UACC-257 melanoma
A498 renal = tested on: A498 renal
MDA-MB-435 = tested on: MDA-MB-435
HCC-2998 colon = tested on: HCC-2998 colon
EKVX NSCLC = tested on: EKVX NSCLC
HCT-116 colon = tested on: HCT-116 colon
HL-60(TB) leukemia = tested on: HL-60(TB) leukemia
OVCAR-4 ovarian = tested on: OVCAR-4 ovarian

Q: Which results are given for `Oc1ccccc1/C=N/Nc1nc(N/N=C/c2ccccc2O)nc(N2CCOCC2)n1`?
A: GI50 (ACHN renal): 1.58 µM; TGI (ACHN renal): 44.9 µM; GI50 (PC-3 prostate): 3.61 µM; TGI (PC-3 prostate): > 100 µM; GI50 (786-0 renal): 0.709 µM; TGI (786-0 renal): 15.3 µM; GI50 (SNB-75 CNS): 1.82 µM; TGI (SNB-75 CNS): 5.26 µM; GI50 (T-47D breast): 3.34 µM; TGI (T-47D breast): > 100 µM; GI50 (SK-MEL-5 melanoma): 5.86 µM; TGI (SK-MEL-5 melanoma): > 100 µM; GI50 (MCF7 breast): 2.39 µM; TGI (MCF7 breast): > 100 µM; GI50 (NCI-H226 lung): 3.92 µM; TGI (NCI-H226 lung): 20.4 µM; GI50 (M14 melanoma): 3.22 µM; TGI (M14 melanoma): > 100 µM; GI50 (COLO 205 colon): 5.53 µM; TGI (COLO 205 colon): > 100 µM; GI50 (UACC-62 melanoma): 24.5 µM; TGI (UACC-62 melanoma): > 100 µM; GI50 (OVCAR-3 ovarian): 3.42 µM; TGI (OVCAR-3 ovarian): > 100 µM; GI50 (HT29 colon): 5.89 µM; TGI (HT29 colon): > 100 µM; GI50 (SF-268 CNS): 16.9 µM; TGI (SF-268 CNS): > 100 µM; GI50 (TK-10 renal): 44.9 µM; TGI (TK-10 renal): > 100 µM; GI50 (CCRF-CEM leukemia): 0.537 µM; TGI (CCRF-CEM leukemia): > 100 µM; GI50 (HOP-62 NSCLC): 3.51 µM; TGI (HOP-62 NSCLC): 23 µM; GI50 (HS 578T breast): 3.24 µM; TGI (HS 578T breast): 44.1 µM; GI50 (SW-620 colon): 1.78 µM; TGI (SW-620 colon): 23.4 µM; GI50 (OVCAR-5 ovarian): 6.41 µM; TGI (OVCAR-5 ovarian): > 100 µM; GI50 (SF-539 CNS): 7.29 µM; TGI (SF-539 CNS): > 100 µM; GI50 (SNB-19 CNS): 3.14 µM; TGI (SNB-19 CNS): 14.9 µM; GI50 (U251 CNS): 3.06 µM; TGI (U251 CNS): 22.3 µM; GI50 (A549 NSCLC): 2.88 µM; TGI (A549 NSCLC): 52.2 µM; GI50 (IGROV1 ovarian): 0.966 µM; TGI (IGROV1 ovarian): > 100 µM; GI50 (CAKI-1 renal): 4.52 µM; TGI (CAKI-1 renal): 46.5 µM; GI50 (SF-295 CNS): 7.67 µM; TGI (SF-295 CNS): > 100 µM; GI50 (HCT-15 colon): 0.241 µM; TGI (HCT-15 colon): 16.2 µM; GI50 (BT-549 breast): 5.19 µM; TGI (BT-549 breast): > 100 µM; GI50 (NCI/ADR-RES ovarian): 0.685 µM; TGI (NCI/ADR-RES ovarian): 9.37 µM; GI50 (K-562 leukemia): 0.683 µM; TGI (K-562 leukemia): > 100 µM; GI50 (SK-OV-3 ovarian): 3.7 µM; TGI (SK-OV-3 ovarian): 13.8 µM; GI50 (UO-31 renal): 0.372 µM; TGI (UO-31 renal): 18.7 µM; GI50 (RXF 393 renal): 0.272 µM; TGI (RXF 393 renal): 2.45 µM; GI50 (SN12C renal): 18.3 µM; TGI (SN12C renal): > 100 µM; GI50 (LOX IMVI melanoma): 0.276 µM; TGI (LOX IMVI melanoma): 0.873 µM; GI50 (NCI-H23 lung): 4.31 µM; TGI (NCI-H23 lung): 20.1 µM; GI50 (SK-MEL-2 melanoma): 6.06 µM; TGI (SK-MEL-2 melanoma): > 100 µM; GI50 (MOLT-4 leukemia): 1.55 µM; TGI (MOLT-4 leukemia): > 100 µM; GI50 (MALME-3M melanoma): 8.69 µM; TGI (MALME-3M melanoma): > 100 µM; GI50 (KM12 colon): 33.2 µM; TGI (KM12 colon): > 100 µM; GI50 (MDA-MB-231 breast): 2.42 µM; TGI (MDA-MB-231 breast): 30.9 µM; GI50 (DU-145 prostate): 6.09 µM; TGI (DU-145 prostate): > 100 µM; GI50 (NCI-H460 lung): 2.3 µM; TGI (NCI-H460 lung): 17.4 µM; GI50 (OVCAR-8 ovarian): 3.75 µM; TGI (OVCAR-8 ovarian): 34.5 µM; GI50 (HOP-92 NSCLC): 1.65 µM; TGI (HOP-92 NSCLC): 6.01 µM; GI50 (RPMI-8226 leukemia): 2.78 µM; TGI (RPMI-8226 leukemia): > 100 µM; GI50 (SR leukemia): 0.322 µM; TGI (SR leukemia): > 100 µM; GI50 (SK-MEL-28 melanoma): 3.2 µM; TGI (SK-MEL-28 melanoma): 49.9 µM; GI50 (UACC-257 melanoma): 6.53 µM; TGI (UACC-257 melanoma): > 100 µM; GI50 (A498 renal): 1.09 µM; TGI (A498 renal): 8.58 µM; GI50 (MDA-MB-435): 9.53 µM; TGI (MDA-MB-435): > 100 µM; GI50 (HCC-2998 colon): 7.65 µM; TGI (HCC-2998 colon): > 100 µM; GI50 (EKVX NSCLC): 3.28 µM; TGI (EKVX NSCLC): 32 µM; GI50 (HCT-116 colon): 0.823 µM; TGI (HCT-116 colon): > 100 µM; GI50 (HL-60(TB) leukemia): 0.193 µM; TGI (HL-60(TB) leukemia): > 100 µM; GI50 (OVCAR-4 ovarian): 2.48 µM; TGI (OVCAR-4 ovarian): 7.56 µM
